According to ChEMBL document CHEMBL3124938, “Synthesis and biological evaluation of positron emission tomography radiotracers targeting serotonin 4 receptors in brain: [18F]MNI-698 and [18F]MNI-699” (Bioorg Med Chem Lett, 2013):
pKd, pKi: −log10 of the molar value. Values belong to the compound of their own block, whether it stands above or below them.

Legend:
[1] = biological target: T1, 5-hydroxytryptamine receptor 4 (Rattus norvegicus, UniProt Q62758); assay: Displacement of [3H]GR113808 from 5HT4 receptor in Sprague-Dawley rat striatal membranes after 1 hr by […]; design: species or system Striatum, Membrane
T1 sequence (Q62758 whole entry): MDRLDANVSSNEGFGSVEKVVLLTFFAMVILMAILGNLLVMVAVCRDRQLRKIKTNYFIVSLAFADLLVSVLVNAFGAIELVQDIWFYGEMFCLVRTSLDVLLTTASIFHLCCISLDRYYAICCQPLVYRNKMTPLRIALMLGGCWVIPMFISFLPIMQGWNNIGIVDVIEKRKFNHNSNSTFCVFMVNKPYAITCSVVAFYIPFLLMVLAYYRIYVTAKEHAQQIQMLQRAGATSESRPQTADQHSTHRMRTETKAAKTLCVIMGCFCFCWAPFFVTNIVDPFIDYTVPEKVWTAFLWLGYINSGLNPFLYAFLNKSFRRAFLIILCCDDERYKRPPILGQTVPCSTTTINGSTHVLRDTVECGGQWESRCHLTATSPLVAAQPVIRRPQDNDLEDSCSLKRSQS

[2] = Drug uptake in rhesus monkey thalamus at 166.6 +/- 11.9 MBq, iv by PET analysis; format: ADME, organism-based, Macaca mulatta; conditions: in vivo
[3] = Drug uptake in rhesus monkey caudate at 166.6 +/- 11.9 MBq, iv by PET analysis; format: ADME, organism-based, Macaca mulatta; conditions: in vivo
[4] = system: Striatum; assay: Standardized uptake value ratio in rhesus monkey striatum at 166.6 +/- 11.9 MBq, iv by PET analysis; format: ADME, organism-based, Macaca mulatta; conditions: in vivo
[5] = Octanol-buffer partition coefficient, log D of the compound at pH 7.4 by shake flask method; format: physicochemical
[6] = Drug uptake in rhesus monkey temporal cortex at 166.6 +/- 11.9 MBq, iv by PET analysis; format: ADME, organism-based, Macaca mulatta; conditions: in vivo
[7] = Standardized uptake value ratio in rhesus monkey globus pallidus at 166.6 +/- 11.9 MBq, iv by PET analysis; format: ADME, organism-based, Macaca mulatta; conditions: in vivo
[8] = system: Striatum; assay: Drug uptake in rhesus monkey striatum at 166.6 +/- 11.9 MBq, iv by PET analysis; format: ADME, organism-based, Macaca mulatta; conditions: in vivo
[9] = Standardized uptake value ratio in rhesus monkey putamen at 166.6 +/- 11.9 MBq, iv by PET analysis; format: ADME, organism-based, Macaca mulatta; conditions: in vivo
[10] = system: Brain; assay: Drug uptake in rhesus monkey brain at 166.6 +/- 11.9 MBq, iv after 20 mins by PET analysis; format: ADME, organism-based, Macaca mulatta; conditions: in vivo
[11] = Drug uptake in rhesus monkey frontal cortex at 166.6 +/- 11.9 MBq, iv by PET analysis; format: ADME, organism-based, Macaca mulatta; conditions: in vivo
[12] = system: Hippocampus; assay: Standardized uptake value ratio in rhesus monkey hippocampus at 166.6 +/- 11.9 MBq, iv by PET analysis; format: ADME, organism-based, Macaca mulatta; conditions: in vivo
[13] = Drug uptake in rhesus monkey globus pallidus at 166.6 +/- 11.9 MBq, iv by PET analysis; format: ADME, organism-based, Macaca mulatta; conditions: in vivo
[14] = Standardized uptake value ratio in rhesus monkey substantia nigra at 166.6 +/- 11.9 MBq, iv by PET analysis; format: ADME, organism-based, Macaca mulatta; conditions: in vivo
[15] = system: Hippocampus; assay: Drug uptake in rhesus monkey hippocampus at 166.6 +/- 11.9 MBq, iv by PET analysis; format: ADME, organism-based, Macaca mulatta; conditions: in vivo
[16] = Drug uptake in rhesus monkey parietal cortex at 166.6 +/- 11.9 MBq, iv by PET analysis; format: ADME, organism-based, Macaca mulatta; conditions: in vivo
[17] = Standardized uptake value ratio in rhesus monkey caudate at 166.6 +/- 11.9 MBq, iv by PET analysis; format: ADME, organism-based, Macaca mulatta; conditions: in vivo
[18] = Drug uptake in rhesus monkey substantia nigra at 166.6 +/- 11.9 MBq, iv by PET analysis; format: ADME, organism-based, Macaca mulatta; conditions: in vivo
[19] = Drug uptake in rhesus monkey putamen at 166.6 +/- 11.9 MBq, iv by PET analysis; format: ADME, organism-based, Macaca mulatta; conditions: in vivo
[20] = Drug uptake in rhesus monkey cerebellum at 166.6 +/- 11.9 MBq, iv by PET analysis; format: ADME, organism-based, Macaca mulatta; conditions: in vivo
[21] = Drug uptake in rhesus monkey occipital cortex at 166.6 +/- 11.9 MBq, iv by PET analysis; format: ADME, organism-based, Macaca mulatta; conditions: in vivo
[22] = biological target: T1, 5-hydroxytryptamine receptor 4; assay: Binding affinity to 5HT4 receptor in rat striatal membranes; format: cell membranes, Striatum, Membrane
[23] = biological target: Serotonin 4 (5-HT4) receptor (Sus scrofa, UniProt Q6Q253); assay: Binding affinity to 5HT4 receptor in pig striatal membranes; format: cell membranes, Striatum, Membrane
Chain of Serotonin 4 (5-HT4) receptor (Q6Q253 whole entry): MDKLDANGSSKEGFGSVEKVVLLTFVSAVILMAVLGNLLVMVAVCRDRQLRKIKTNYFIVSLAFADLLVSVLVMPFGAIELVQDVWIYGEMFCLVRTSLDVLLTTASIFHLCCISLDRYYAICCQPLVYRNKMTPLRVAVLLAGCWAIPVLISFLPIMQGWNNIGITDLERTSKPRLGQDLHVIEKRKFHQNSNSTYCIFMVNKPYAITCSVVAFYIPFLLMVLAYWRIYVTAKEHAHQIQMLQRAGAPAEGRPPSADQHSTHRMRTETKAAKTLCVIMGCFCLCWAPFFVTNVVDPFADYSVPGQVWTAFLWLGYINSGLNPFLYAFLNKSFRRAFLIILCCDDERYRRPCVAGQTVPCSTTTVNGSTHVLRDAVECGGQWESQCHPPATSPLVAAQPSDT

[24] = system: Rhesus monkey; assay: Ex vivo receptor occupancy of 5HT4 receptor in rhesus monkey at 0.5 mg/kg; format: functional, Macaca mulatta
[25] = biological target: 5-hydroxytryptamine receptor 4 (Cavia porcellus, UniProt O70528); assay: Binding affinity to 5HT4 receptor in guinea pig distal colon
Chain of 5-hydroxytryptamine receptor 4 (Cavia porcellus, UniProt O70528) (O70528 whole entry): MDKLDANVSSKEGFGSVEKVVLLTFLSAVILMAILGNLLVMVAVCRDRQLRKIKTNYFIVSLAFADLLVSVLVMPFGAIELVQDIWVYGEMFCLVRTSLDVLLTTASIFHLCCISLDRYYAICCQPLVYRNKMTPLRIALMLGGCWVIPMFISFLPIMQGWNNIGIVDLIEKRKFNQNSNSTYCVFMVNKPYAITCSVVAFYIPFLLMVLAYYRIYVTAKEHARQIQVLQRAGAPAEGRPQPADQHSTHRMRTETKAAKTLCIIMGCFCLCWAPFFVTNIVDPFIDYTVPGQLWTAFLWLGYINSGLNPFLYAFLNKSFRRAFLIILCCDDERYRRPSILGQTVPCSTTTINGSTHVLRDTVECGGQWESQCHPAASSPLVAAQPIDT

- pKi [1]: 10.15
SMILES: Nc1c(Cl)cc(C(=O)OCC2CCN(CCCF)CC2)c2c1OCCO2

SMILES: Nc1c(Cl)cc(C(=O)OCC2CCN(CC[18F])CC2)c2c1OCCO2
- Drug uptake [2]: Active
- Drug uptake [3]: Active
- SUV [4]: 3
- logD [5]: 1.8
- Drug uptake [6]: Active
- SUV [7]: 3
- Drug uptake [8]: Active
- SUV [9]: 3
- Drug uptake [10]: 6.6 %ID
- Drug uptake [11]: Active
- SUV [12]: 3
- Drug uptake [13]: Active
- SUV [14]: 3
- Drug uptake [15]: Active
- Drug uptake [16]: Active
- SUV [17]: 3
- Drug uptake [18]: Active
- Drug uptake [19]: Active
- Drug uptake [20]: Active
- Drug uptake [21]: Active

- Drug uptake [2]: Active
- Drug uptake [3]: Active
- SUV [4]: 3
- logD [5]: 1.4
- Drug uptake [6]: Active
- SUV [7]: 3
- Drug uptake [8]: Active
- SUV [9]: 3
- Drug uptake [10]: 5.6 %ID
- Drug uptake [11]: Active
- SUV [12]: 3
- Drug uptake [13]: Active
- SUV [14]: 3
- Drug uptake [15]: Active
- Drug uptake [16]: Active
- SUV [17]: 3
- Drug uptake [18]: Active
- Drug uptake [19]: Active
- Drug uptake [20]: Active
- Drug uptake [21]: Active
SMILES: Nc1c(Cl)cc(C(=O)OCC2CCN(CCC[18F])CC2)c2c1OCCO2

SMILES: Nc1c(Cl)cc(C(=O)OCC2CCN(CCF)CC2)c2c1OCCO2
- pKi [1]: 9.70

- pKd [22]: 9.52
SMILES: CCCCN1CCC(COC(=O)c2cc(I)c(N)c3c2OCCO3)CC1

- pKd [23]: 10.10
- pKd [22]: 9.52
SMILES: CN1CCC(COC(=O)c2cc(Cl)c(N)c3c2OCCO3)CC1

- pKd [25]: 10.70
SMILES: CCCCN1CCC(COC(=O)c2cc(Cl)c(N)c3c2OCCO3)CC1
- Activity [24]: 93%
